Reference: article PMC6270258, “Diosgenone Synthesis, Anti-Malarial Activity and QSAR of Analogues of This Natural Product” (Molecules, 2013)
Where two headings read alike, the source gives them in different places.

Tests used:
[1] = Cytotoxicity, MTT colorimetric test; assay type: cell-based, human; conditions: human
Description: (§1) Steroidal derivatives’ cytotoxicity regarding the HepG2-A16 cell line was evaluated by colorimetric test using 3-(4,5-dimethylthiazolyl-2)-2,5-diphenyltetrazolium bromide (MTT), as described by Mosmann [28]. […] An aliquot of each derivative dilution (100 μL, 1,000, 100, 10 and 1 μg/mL) was then added to the wells in triplicate. […] The DMSO diluent agent was evaluated in complete medium and negative controls (untreated cells) were included. Absorbance was measured at 550 nm and statistical Prism software version 5.0 (GraphPad Software Inc., La Jolla, CA, USA) was used for calculating toxic concentration (CC50). Amphotericin B was used as positive control in this assay.

[2] = system: Plasmodium falciparum FCB-2 (chloroquine-resistant) strain; test: In vitro antiplasmodial activity, [3H]hypoxanthine incorporation, FCB-2 strain; assay type: cell-based; conditions: for IC50: Plasmodium falciparum; for antiplasmodial activity (in words): P. falciparum FCB-2 and NF-54 strains, compared to diosgenone or parent; for RI (resistance index): IC50 FCB-2 (resistant strain)/IC50 NF-54 (sensitive strain)
Description: (§2) A 10 mg/mL stock solution was prepared. […] A 50 μL sample was extracted from this solution and adjusted to 1,000 μL with RPMI-1640 without hypoxanthine until a final 500 μg/mL concentration was reached. The P. falciparum FcB-2 (Colombia) and NF54 (The Netherlands) strains were used for assessing anti-malarial activity.
(§3) Trager and Jensen’s method was used for culturing strains [24, 25]. The methods described by Desjardins et al. [26] were used for evaluating the structural analogs’ in vitro antiplasmodial activity, with some modifications. […] 1.0 µCi/mL of [3H] hypoxanthine (MP Biomedicals, Santa Ana, CA, USA) was added to each well and the plates were then incubated for 48 h at 37 °C in 5% CO2, 5% O2 in a balanced N2 atmosphere. Parasite DNA was harvested and radioactivity was determined by automatic TDCR liquid scintillation counter plate (Chameleon, Hidex Oy, Finland). Experiments were repeated twice with two or three replicates each. A nonlinear regression sigmoidal dose-response (variable slope) model was used to estimate concentration inhibiting 50% growth (IC50) values for each derivative.

[3] = system: Plasmodium berghei (ANKA strain); test: Peters' 4-day suppressive test in P. berghei-infected mice; assay type: in vivo, Plasmodium berghei in Balb/C mice
Description: Antimalarial activity was expressed as the percentage of parasite multiplication inhibition.
Antimalarial activity was assessed in vivo in the P. berghei rodent malaria model according to Peters’ 4-day suppressive test in P. berghei-infected (ANKA strain), 5–6 week-old Balb/C mice (males and females) weighing 23 ± 5 g; parasitemia kinetics were evaluated following treatment [2]. […] The donor mice were anesthetized with a 5 mg/kg xylazine and 50 mg/kg ketamine cocktail; blood was then collected via intracardiac route and 100 uL of 5 × 10^6 P. berghei ANKA-parasitised parasitized erythrocytes per experimental mouse were inoculated. Mouse infection was checked one day later by thin smear blood test and Giemsa staining.

[4] = system: Plasmodium falciparum NF-54 strain; test: In vitro antiplasmodial activity, [3H]hypoxanthine incorporation, NF-54 strain; assay type: cell-based; conditions: 48 h, read-out: IC50 μM ± SD NF-54
Description: as §2, §3

[5] = system: HepG2-A16 human hepatoma cells; test: Cytotoxicity, MTT colorimetric test; assay type: cell-based; conditions: for SI (selectivity index): CC50 HepG2/IC50 parasite FCB-2
Description: as §1

[6] = HepG2-A16 human hepatoma cells, HepG2-A16 cells, MTT, 48 h, read-out: CC50
[7] = 48 h, read-out: IC50 μM ± SD FCB-2
[8] = 48 h, P. falciparum FCB-2 chloroquine-resistant strain, 48 h, read-out: IC50 μM ± SD FCB-2
[9] = HepG2-A16 cells, MTT, 48 h, read-out: CC50
[10] = P. falciparum NF-54 chloroquine-sensitive strain

SMILES | antiplasmodial activity (in words) [2] | IC50 [2, 8] [µM] | IC50 [4, 10] [µM] | RI (resistance index) [2] | SI (selectivity index) [5] | melting point [°C] | CC50 at 48 h [1] [µM] | also measured
C[C@@H]1[C@H](O)[C@@H](C)/C=C/C=C/C=C/C=C/C=C/C=C/C=C/[C@H](O[C@@H]2O[C@H](C)[C@@H](O)[C@H](N)[C@@H]2O)C[C@@H]2O[C@](O)(C[C@@H](O)C[C@@H](O)[C@H](O)CC[C@@H](O)C[C@@H](O)CC(=O)O[C@H]1C)C[C@H](O)[C@H]2C(=O)O [AF-B, amphotericin B, reference compound] | – | – | – | – | – | – | – | CC50 at 48 h [1, 6]: 39.6 µM
CCN(CC)CCCC(C)Nc1ccnc2cc(Cl)ccc12 (stereo not drawn) [CQ, chloroquine, reference compound] | – | – | – | – | – | – | – | IC50 [2, 7]: 0.157 ± 0.01 µM; IC50 ([2]; read-out: IC50 in the FCB-2 strain): 0.158 µM; reduction of parasitemia ([3]; 5 mg/kg oral, second day of treatment): 100.0%; IC50 [4]: 0.02 ± 0.005 µM
C[C@@H]1CC[C@@]2(OC1)O[C@H]1C[C@H]3[C@@H]4CC=C5C[C@@H](O)CC[C@]5(C)[C@H]4CC[C@]3(C)[C@H]1[C@@H]2C [Compound 1, (25R)-5-spirosten-3β-ol, reference compound] | lacked antiplasmodial activity | > 482 | > 482 | – | – | – | – | CC50 at 48 h [1, 9]: 1110 µM
CC(=O)[C@H]1CC[C@H]2[C@@H]3CCC4=CC(=O)CC[C@]4(C)[C@H]3CC[C@]12C [Compound 5, 4-Pregnene-3,20-dione, reference compound] | displayed antiplasmodial activity | 38.2 ± 1.2 | 25.4 ± 1.6 | 1.5 | 5.0 | – | – | CC50 at 48 h [1, 9]: 193 µM
CC(=O)[C@@]1(O)CC[C@H]2[C@@H]3CCC4=CC(=O)CC[C@]4(C)[C@H]3CC[C@@]21C [Compound 6, 17-hydroxy-4-pregnene-3,20-dione, reference compound] | inactive | – | – | 1.0 | – | – | – | IC50 ([2]; 48 h, read-out: IC50 μM ± SD FCB-2, P. falciparum FCB-2 chloroquine-resistant strain, 48 h): > 303 µM; CC50 at 48 h [1, 6]: > 1140 µM; IC50 [4]: > 303 µM
CC1=CC[C@@]2(C)C(=C1)CC[C@H]1[C@@H]3C[C@@H]4O[C@]5(CC[C@@H](C)CO5)[C@@H](C)[C@@H]4[C@@]3(C)CC[C@@H]12 [Compound 7, (25R)-3-Methyl-spirostan-2,4-diene] | marginal activity compared to diosgenone | 70.4 ± 5.5 | 34.6 ± 3.3 | 2.0 | 3.1 | 172 to 174 | 217 | –
C[C@@H]1CC[C@@]2(OC1)O[C@H]1C[C@H]3[C@@H]4CCC5=CC(O)(Cc6ccccc6)CC[C@]5(C)[C@H]4CC[C@]3(C)[C@H]1[C@@H]2C (stereo partly drawn) [Compound 8, (25R)-3-Benzyl-spirostan-4-en-3-ol] | inactive against both P. falciparum strains | > 396 | > 396 | – | – | 203 to 205 | > 1980 | –
Cc1ccc(S(=O)(=O)NN=C2C=C3CCC4C(CCC5(C)C4CC4OC6(CCC(C)CO6)C(C)C45)C3(C)CC2)cc1 [Compound 9, (25R)-3-p-Toluenehydrazine-spirostan-4-ene] | marginal activity compared to diosgenone | 56.1 ± 0.3 | 52.5 ± 7.7 | 1.1 | – | 148 to 150 | > 1170 | –
C[C@@H]1CC[C@@]2(OC1)O[C@H]1C[C@H]3[C@@H]4CCC56OC5C(=O)CC[C@]6(C)[C@H]4CC[C@]3(C)[C@H]1[C@@H]2C (stereo partly drawn) [Compound 10, (25R)-4,5-Epoxy-spirostan-3-one] | marginal activity compared to diosgenone | 56.7 ± 6.3 | 106 ± 7.7 | 0.5 | 1.8 | 184 to 186 | 101 | –
C[C@@H]1CC[C@@]2(OC1)O[C@H]1C[C@H]3[C@@H]4CCC5CC(=O)CC[C@]5(C)[C@H]4CC[C@]3(C)[C@H]1[C@@H]2C (stereo partly drawn) [Compound 11, (25R)-Spirostan-3-one] | inactive against both P. falciparum strains | > 482 | > 482 | – | – | – | – | CC50 at 48 h [1, 6]: > 916 µM
C[C@@H]1CC[C@@]2(OC1)O[C@H]1C[C@H]3[C@@H]4CCC5=CC(=O)C=C[C@]5(C)[C@H]4CC[C@]3(C)[C@H]1[C@@H]2C [Compound 12, (25R)-1,4-Spirostadien-3-one] | – | 36 ± 2.3 | 29.2 ± 1.1 | 1.2 | – | 181 to 183 | > 487 | –
C[C@@H]1CC[C@@]2(OC1)O[C@H]1C[C@H]3[C@@H]4CCC5=CC(O)CC[C@]5(C)[C@H]4CC[C@]3(C)[C@H]1[C@@H]2C (stereo partly drawn) [Compound 13, (25R)-4-Spirosten-3-ol] | marginal activity compared to diosgenone | 63.2 ± 0.3 | 71.9 ± 0.3 | 0.9 | – | – | – | CC50 at 48 h [1, 6]: > 2410 µM
CC1CCC2(OC1)OC1(O)CC3C4CCC56OC5C(=O)CCC6(C)C4CCC3(C)C1C2C [Compound 14, (25R)-4,5-Epoxy-spirostan-16α-hydroxy-3-one] | – | 10.1 ± 1.3 | 8.5 ± 2.3 | 1.2 | 15.2 | 145 to 147 | 153 | reduction in parasitemia ([3]; 100 mg/kg oral, 4 daily doses): 36.7%
C[C@@H](CI)CCC(=O)[C@@H](C)[C@H]1C(=O)CC2C3CCC4=CC(=O)CC[C@]4(C)C3CC[C@@]21C (stereo partly drawn) [Compound 15, (25R)-26-Iodine-cholest-4-en-3,16,22-trione] | – | 2.9 ± 0.3 | 2.2 ± 0.4 | 1.3 | 31.1 | 148 to 150 | 90.2 | –
CC(=O)OC1CC[C@@]2(C)C(=CC[C@H]3[C@@H]4C[C@@H]5O[C@]6(CC[C@@H](C)CO6)[C@@H](C)[C@@H]5[C@@]4(C)CC[C@@H]32)C1 (stereo partly drawn) [Compound 16, (25R)-3-Acetoxy-spirostan-5-ene] | neither active | > 438 | > 438 | – | – | 182 to 184 | > 2190 | cytotoxicity (in words) [5]: nor toxic
C[C@@H]1CC[C@@]2(OC1)O[C@H]1C[C@H]3[C@@H]4CC5OC56CC(O)CC[C@]6(C)[C@H]4CC[C@]3(C)[C@H]1[C@@H]2C (stereo partly drawn) [Compound 17, (25R)-5,6-Epoxy-spirostan-3-ol] | neither active | > 409 | 184 | 2.2 | – | 97 to 99 | > 2050 | cytotoxicity (in words) [5]: nor toxic
C[C@@H]1CC[C@@]2(OC1)O[C@H]1C[C@H]3[C@@H]4CC=C5C=CCC[C@]5(C)[C@H]4CC[C@]3(C)[C@H]1[C@@H]2C [Compound 19, (25R)-3,5-Spirostadiene] | neither active | 438 ± 12 | 370 ± 8.3 | 1.2 | – | – | – | cytotoxicity (in words) ([5]; HepG2-A16 cells): nor toxic; CC50 at 48 h [1, 6]: > 2520 µM
CC(=O)O[C@H]1CC[C@@]2(C)C(=CCC3C4C[C@H](OC(C)=O)C(C(C)C5=C(C(C)=O)C[C@@H](C)CO5)[C@@]4(C)CCC32)C1 (stereo partly drawn) [Compound 20, (25R)-23-Acetyl-3,16-diacetoxy-22,23-pyran-cholesta-5,22-diene] | neither active | > 380 | > 380 | – | – | – | > 1900 | cytotoxicity (in words) [5]: nor toxic
CC(=O)OC1C[C@H]2[C@@H]3CCC4=CC(=O)CC[C@]4(C)[C@H]3CC[C@]2(C)[C@H]1[C@H](C)C(=O)CC[C@@H](C)C=O (stereo partly drawn) [Compound 21, (25R)-16-Acetoxy-4-cholesten-3,22-dione-26-al] | – | 92.2 ± 12.3 | 70.8 ± 0.8 | 1.3 | 4.6 | – | 424 | –
CC(=O)OC1C[C@H]2[C@@H]3CCC4CC(=O)CC[C@]4(C)[C@H]3CC[C@]2(C)[C@H]1[C@H](C)C(=O)CC[C@@H](C)CO (stereo partly drawn) [Compound 22, (25R)-16-Acetoxy-26-hydroxy-cholestan-3,22-dione] | – | 94.2 ± 5.3 | 62.1 ± 8.9 | 1.5 | 0.9 | – | 82.4 | –
CC(=O)OC[C@H](C)CCC(=O)[C@@H](C)[C@H]1C(OC(C)=O)C[C@H]2[C@@H]3CCC4=CC(=O)CC[C@]4(C)[C@H]3CC[C@]12C (stereo partly drawn) [Compound 23, (25R)-16,26-Diacetoxy-4-cholesten-3,22-dione] | – | 17.3 ± 1.4 | 0.6 ± 0.9 | 28.8 | 16.2 | – | 281 | cytotoxicity (in words) [5]: less toxic
CC(=O)OC1C[C@H]2[C@@H]3CCC4=CC(O)CC[C@]4(C)[C@H]3CC[C@]2(C)[C@H]1[C@H](C)C(O)CC[C@@H](C)CO (stereo partly drawn) [Compound 24, (25R)-16-Acetoxy-4-cholesten-3,22,26-triol] | – | 95 ± 7.3 | 101 ± 9.9 | 0.9 | 3.2 | 144 to 146 | 306 | –
C[C@H](C(=O)CC[C@@H](C)C=O)[C@H]1C(=O)C[C@H]2[C@@H]3CCC4=CC(=O)CC[C@]4(C)[C@H]3CC[C@]12C [Compound 25] | – | – | – | 1.3 | 0.4 | – | – | IC50 [2, 7]: 123 ± 12.8 µM; CC50 at 48 h [1, 9]: 45.2 µM; IC50 [4]: 95.9 ± 8.3 µM
